Experimental data as given in patent US10570179B2, “Substituted urea depsipeptide analogs as activators of the CLPP endopeptidase” (priority 2016, dated 2020).
≈ marks a conversion by molar mass, not a printed value. Where two headings read alike, the source gives them in different places. Numbered stars: 1 amine (or outer) side, 2 acyl side, 3 side chain; on linkers, the order of the positions; unused ones are H or OH. Bridge positions count the residues as written; N and C are the ends. Square brackets hold non-standard residues; d marks the D form. Peptide text beside a SMILES is read from it. * marks the point of attachment. X6 = O=C([C@@H]1CS(=O)(=O)CCN1[*:1])[*:2]; Phe(3-Me) = Cc1cccc(C[C@H](N)C(=O)O)c1; Pro(4S-Me) = C[C@@H]1CN[C@H](C(=O)O)C1; NH(4-Cl-2-F-phenyl) = Fc1cc(Cl)ccc1N*; Pro(4R-Me) = C[C@H]1CN[C@H](C(=O)O)C1; Propanoyl(3-NMe2) = CN(C)CCC(=O)*; X1 = O=C([C@@H]1CSCCN1[*:1])[*:2]; Hyp = O=C(O)[C@@H]1C[C@@H](O)CN1; NH(4-Me-phenyl) = Cc1ccc(N*)cc1; aThr = C[C@H](O)[C@H](N)C(=O)O; Pip = O=C(O)[C@@H]1CCCCN1; 4Abz = Nc1ccc(C(=O)O)cc1; CO = O=C([*:1])[*:2]; X2 = Fc1cc(N*)ccc1Cl

How the values were obtained:
[1] = Solubility determination; format: physicochemical; conditions: for solubility kinetic at 10 min: 22 °C, aqueous buffer, kinetic from dmso stock
Protocol: Test compounds were synthesized and supplied by the Department of Chemical Biology and Therapeutics at St. Jude Children's Research Hospital (Memphis, Tenn.). LC-MS chromasolv grade acetonitrile (ACN) was purchased from Fisher Scientific (Loughborough, UK). LC-MS chromasolv grade formic acid was obtained from Sigma-Aldrich (St. Louis, Mo.). Milli-Q water as an ultrapure laboratory grade water was used in aqueous mobile phase.
Chromatographic separation was performed on an Acquity UPLC BEH C18 1.7 μm, 2.1×50 mm column (Waters Corporation, Milford, Mass.) using an Acquity ultra performance liquid chromatography system. The total flow rate was 0.9 mL/min. The sample injection volume was 10 μL. The UPLC column was maintained at 60° C. and the gradient program started at 90% A (0.1% formic acid in MilliQ H2O), changed to 70% A over 0.2 min, to 95% B (0.1% formic acid in ACN) over 1.4 minutes, held for 0.35 minutes, then to 90% A over 0.05 minutes.
Mass data was acquired with an Acquity SQD Mass Spectrometer. The mass spectrometer was operated in positive-ion mode with electrospray ionization. The conditions were as follows: capillary voltage 3.5 kV, cone voltage 30 V, source temperature 150° C., desolvation temperature 350° C., desolvation gas 500 L/hr, cone gas 25 L/hr. Data were acquired using Masslynx v. 4.1 and analyzed using the Quanlynx software suite. A full scan range from m/z=100-1000 in 0.2 s was used to acquire MS data. Both UV and Single ion recording mass spectrometry were used to determine the quantification of the samples.
Stock solutions were prepared by dissolving compounds into DMSO to yield a concentration of 10 mM. Stock solutions were stored at room temperature.
Calibration standards were made by adding stock solutions to DMSO for final concentrations of compounds at concentration of 100, 25, 6.25, 1.563, 0.391 and 0.098 μM.
Solubility test samples were made by adding stock solutions to 200 μL, of DPBS for final concentrations of compounds at 100 μM in a 96-well analytical plate (300 μL, maximum volume in each well). Samples were tested in triplicates. The plate was sealed, shaken at 600 rpm for 10 minutes, and then was centrifuged at 4000 rpm for 20 min at 22° C. 100 μL, of the supernatant was transferred to a new analytical 96-well plate and 10 μL, was injected onto the LCMS system.
Two calibration curves for solubility test samples were analyzed during the quantitation process. The linear regression of test compound peak areas was weighted by 1/x^2. […] Coefficient of determination (R^2) was used to evaluate the linearity of each calibration curve.

[2] = test system: S. aureus ΔClpP; assay: Minimal inhibitory concentration, microbroth dilution; format: cell-based, Staphylococcus aureus; conditions: MIC; ClpP inactivated
Summary of the method: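 Growth inhibition was scored visually after overnight aerobic culture at 37 °C in CLSI-style microdilution plates. Inocula contained about 10^5 cfu/mL, and compound concentrations descended in twofold steps from 200 μM.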

[3] = solubility in DPBS, 100 μM test samples, LCMS, read-out: LCMS

Structure (SMILES): Cc1ccc(NC(=O)N[C@@H](Cc2cccc(C)c2)C(=O)N[C@H]2COC(=O)[C@@H]3C[C@H](C)CN3C(=O)[C@H](C)NC(=O)[C@@H]3CCCCN3C(=O)[C@@H]3CCCN3C2=O)cc1 (stereo in doubt) [Compound 43, (S)—N-((2S,6S,8AS,14AS,20S,23AS)-2,6-DIMETHYL-5,8,14,19,23-PENTAOXOOCTADECAHYDRO-1H,5H,14H,19H-PYRIDO[2,1-I]DIPYRROLO[2,1-C:2′,1′-L][1]OXA[4,7,10,13]TETRAAZACYCLOHEXADECIN-20-YL)-3-(M-TOLYL)-2-(3-(P-TOLYL)UREIDO)PROPANAMIDE]
- solubility kinetic at 10 min [1, 3]: 42.2 ± 0.9 µM (≈ 32.6 µg/mL)
- μsol (μM) ([1]; solubility): 49.8 ± 2.5 µM
- Minimal Inhibitory Concentrations (μM) S. aureus ΔClpP [2]: >20 µM

Structure (SMILES): Cc1cccc(C[C@H](NC(=O)Nc2ccc(Cl)c(F)c2)C(=O)N[C@@H]2C(=O)N3CCC[C@H]3C(=O)N3CCCC[C@H]3C(=O)N[C@@H](C)C(=O)N3C[C@H](C)C[C@H]3C(=O)O[C@H]2C)c1 [Compound 35, (S)-2-(3-(4-CHLORO-3-FLUOROPHENYL)UREIDO)-3-(M-TOLYL)-N-((2R,6S,8AS,14AS,20S,21S,23AS)-2,6,21-TRIMETHYL-5,8,14,19,23-PENTAOXOOCTADECAHYDRO-1H,5H,14H,19H-PYRIDO[2,1-I]DIPYRROLO[2,1-C:2′,1′-L][1]OXA[4,7,10,13]TETRAAZACYCLOHEXADECIN-20-YL)PROPANAMIDE] ({X2-CO}-[Phe(3-Me)][aThr]P[Pip]A[Pro(4R-Me)]; ester 2-C)
- μsol (μM) [1]: 0.9 ± .95 µM
- solubility kinetic at 10 min [1]: 0.002 ± 0.002 µM (≈ 0.00165 µg/mL)
- Minimal Inhibitory Concentrations (μM) S. aureus ΔClpP [2]: >20 µM

Structure (SMILES): CCOC(=O)c1ccc(NC(=O)N[C@@H](Cc2cccc(C)c2)C(=O)N[C@@H]2C(=O)N3C[C@H](O)C[C@H]3C(=O)N3CCCC[C@H]3C(=O)N[C@@H](C)C(=O)N3C[C@H](C)C[C@H]3C(=O)O[C@H]2C)cc1 [Compound 36, ETHYL 4-(3-((S)-1-(((2R,6S,8AS,14AS,16R,20S,21S,23AS)-16-HYDROXY-2,6,21-TRIMETHYL-5,8,14,19,23-PENTAOXOOCTADECAHYDRO-1H,5H,14H,19H-PYRIDO[2,1-I]DIPYRROLO[2,1-C:2′,1′-L][1]OXA[4,7,10,13]TETRAAZACYCLOHEXADECIN-20-YL)AMINO)-1-OXO-3-(M-TOLYL)PROPAN-2-YL)UREIDO)BENZOATE] ({OEt-4Abz-CO}-[Phe(3-Me)][aThr][Hyp][Pip]A[Pro(4R-Me)]; ester 2-C)
- solubility kinetic at 10 min [1, 3]: 8.17 ± 0.167 µM (≈ 7.02 µg/mL)
- μsol (μM) ([1]; solubility): 6.4 ± .40 µM
- Minimal Inhibitory Concentrations (μM) S. aureus ΔClpP [2]: >20 µM

Structure (SMILES): Cc1cccc(C[C@H](NC(=O)Nc2ccc(Cl)cc2F)C(=O)N[C@@H]2C(=O)N3CCC[C@H]3C(=O)N3CCSC[C@H]3C(=O)N[C@@H](C)C(=O)N3C[C@H](C)C[C@H]3C(=O)O[C@H]2C)c1 [Compound 38, (S)-2-(3-(4-CHLORO-2-FLUOROPHENYL)UREIDO)-3-(M-TOLYL)-N-((6AS,12S,13S,15AS,17R,21S,23AR)-13,17,21-TRIMETHYL-6,11,15,20,23-PENTAOXOOCTADECAHYDRO-6H,11H,15H-DIPYRROLO[2,1-C:2′,1′-L][1,4]THIAZINO[3,4-I][1]OXA[4,7,10,13]TETRAAZACYCLOHEXADECIN-12-YL)PROPANAMIDE] ({NH(4-Cl-2-F-phenyl)-CO}-[Phe(3-Me)][aThr]P[X1]A[Pro(4R-Me)]; ester 2-C)
- μsol (μM) [1]: 1.7 ± .70 µM
- solubility kinetic at 10 min [1]: 0.011 ± 0.011 µM (≈ 0.00927 µg/mL)
- Minimal Inhibitory Concentrations (μM) S. aureus ΔClpP [2]: >20 µM

Structure (SMILES): Cc1cccc(C[C@H](NC(=O)Nc2ccc(Cl)cc2F)C(=O)N[C@@H]2C(=O)N3CCC[C@H]3C(=O)N3CCS(=O)(=O)C[C@H]3C(=O)N[C@@H](C)C(=O)N3C[C@H](C)C[C@H]3C(=O)O[C@H]2C)c1 [Compound 40, (S)-2-(3-(4-CHLORO-2-FLUOROPHENYL)UREIDO)-3-(M-TOLYL)-N-((6AS,12S,13S,15AS,17R,21S,23AR)-13,17,21-TRIMETHYL-2,2-DIOXIDO-6,11,15,20,23-PENTAOXOOCTADECAHYDRO-6H,11H,15H-DIPYRROLO[2,1-C:2′,1′-L][1,4]THIAZINO[3,4-I][1]OXA[4,7,10,13]TETRAAZACYCLOHEXADECIN-12-YL)PROPANAMIDE] ({NH(4-Cl-2-F-phenyl)-CO}-[Phe(3-Me)][aThr]P[X6]A[Pro(4R-Me)]; ester 2-C)
- μsol (μM) [1]: 0 µM
- solubility kinetic at 10 min [1]: 2.21 ± 0.208 µM (≈ 1.93 µg/mL)
- Minimal Inhibitory Concentrations (μM) S. aureus ΔClpP [2]: >20 µM

Structure (SMILES): Cc1cccc(C[C@H](NC(=O)Nc2ccc(Cl)cc2F)C(=O)N[C@@H]2C(=O)N3C[C@H](O)C[C@H]3C(=O)N3CCSC[C@H]3C(=O)N[C@@H](C)C(=O)N3C[C@H](C)C[C@H]3C(=O)O[C@H]2C)c1 [Compound 41, (S)-2-(3-(4-CHLORO-2-FLUOROPHENYL)UREIDO)-N-((6AS,8R,12S,13S,15AS,17R,21S,23AR)-8-HYDROXY-13,17,21-TRIMETHYL-6,11,15,20,23-PENTAOXOOCTADECAHYDRO-6H,11H,15H-DIPYRROLO[2,1-C:2′,1′-L][1,4]THIAZINO[3,4-I][1]OXA[4,7,10,13]TETRAAZACYCLOHEXADECIN-12-YL)-3-(M-TOLYL)PROPANAMIDE] ({NH(4-Cl-2-F-phenyl)-CO}-[Phe(3-Me)][aThr][Hyp][X1]A[Pro(4R-Me)]; ester 2-C)
- μsol (μM) [1]: 2.4 ± .40 µM
- solubility kinetic at 10 min [1]: 1.4 ± 0.4 µM (≈ 1.2 µg/mL)
- Minimal Inhibitory Concentrations (μM) S. aureus ΔClpP [2]: >20 µM

Structure (SMILES): Cc1ccc(NC(=O)N[C@@H](Cc2cccc(C)c2)C(=O)N[C@@H]2C(=O)N3C[C@H](O)C[C@H]3C(=O)N3CCSC[C@H]3C(=O)N[C@@H](C)C(=O)N3C[C@H](C)C[C@H]3C(=O)O[C@H]2C)cc1 [Compound 42, (S)—N-((6AS,8R,12S,13S,15AS,17R,21S,23AR)-8-HYDROXY-13,17,21-TRIMETHYL-6,11,15,20,23-PENTAOXOOCTADECAHYDRO-6H,11H,15H-DIPYRROLO[2,1-C:2′,1′-L][1,4]THIAZINO[3,4-I][1]OXA[4,7,10,13]TETRAAZACYCLOHEXADECIN-12-YL)-3-(M-TOLYL)-2-(3-(P-TOLYL)UREIDO)PROPANAMIDE] ({NH(4-Me-phenyl)-CO}-[Phe(3-Me)][aThr][Hyp][X1]A[Pro(4R-Me)]; ester 2-C)
- solubility kinetic at 10 min [1, 3]: 29.2 ± 9.2 µM (≈ 23.9 µg/mL)
- μsol (μM) ([1]; solubility): 29.7 ± 9.7 µM
- Minimal Inhibitory Concentrations (μM) S. aureus ΔClpP [2]: >20 µM

Structure (SMILES): Cc1ccc(NC(=O)N[C@@H](Cc2cccc(C)c2)C(=O)N[C@@H]2C(=O)N3CCC[C@H]3C(=O)N3CCCC[C@H]3C(=O)N[C@@H](C)C(=O)N3C[C@@H](C)C[C@H]3C(=O)O[C@H]2C)cc1 [Compound 45, (S)-3-(M-TOLYL)-2-(3-(P-TOLYL)UREIDO)-N-((2S,6S,8AS,14AS,20S,21S,23AS)-2,6,21-TRIMETHYL-5,8,14,19,23-PENTAOXOOCTADECAHYDRO-1H,5H,14H,19H-PYRIDO[2,1-I]DIPYRROLO[2,1-C:2′,1′-L][1]OXA[4,7,10,13]TETRAAZACYCLOHEXADECIN-20-YL)PROPANAMIDE] ({NH(4-Me-phenyl)-CO}-[Phe(3-Me)][aThr]P[Pip]A[Pro(4S-Me)]; ester 2-C)
- solubility kinetic at 10 min [1, 3]: 44.5 ± 2.7 µM (≈ 35 µg/mL)
- μsol (μM) ([1]; solubility): 44.7 ± 4.2 µM
- Minimal Inhibitory Concentrations (μM) S. aureus ΔClpP [2]: >20 µM

Structure (SMILES): Cc1cccc(C[C@H](NC(=O)Nc2ccc(Cl)cc2F)C(=O)N[C@@H]2C(=O)N3C[C@H](OC(=O)CCN(C)C)C[C@H]3C(=O)N3CCCC[C@H]3C(=O)N[C@@H](C)C(=O)N3C[C@H](C)C[C@H]3C(=O)O[C@H]2C)c1 [Compound 46, (2R,6S,8AS,14AS,16R,20S,21S,23AS)-20-((S)-2-(3-(4-CHLORO-2-FLUOROPHENYL)UREIDO)-3-(M-TOLYL)PROPANAMIDO)-2,6,21-TRIMETHYL-5,8,14,19,23-PENTAOXOOCTADECAHYDRO-1H,5H,14H,19H-PYRIDO[2,1-I]DIPYRROLO[2,1-C:2′,1′-L][1]OXA[4,7,10,13]TETRAAZACYCLOHEXADECIN-16-YL 3-(DIMETHYLAMINO)PROPANOATE] ({NH(4-Cl-2-F-phenyl)-CO}-[Phe(3-Me)][aThr][Hyp](Propanoyl(3-NMe2))[Pip]A[Pro(4R-Me)]; ester 2-C)
- μsol (μM) [1]: 12.1 ± 1.5 µM
- solubility kinetic at 10 min [1]: 195 ± 27 µM (≈ 183 µg/mL)
- Minimal Inhibitory Concentrations (μM) S. aureus ΔClpP [2]: >20 µM
